Data published in article PMC12040169 (PLOS Biology, 2025).

Assay: in vitro
Conditions: human, hela cells, % viability

Structure (SMILES) | viability at 28.5 h, 10 µM | viability at 28.5 h, 10 µM (bulk resorufin, single well)
Cc1nnc(N/N=C/c2ccc(OC3CCCC3)cc2)nc1O [CBK058025] | 104% | 
N=C(N)CCCOc1ccccc1-c1ccccc1 [CBK058057] | 100% | 
Nc1nc(-c2ccccc2)c(C(=O)Nc2ccccc2)s1 [CBK058068] | 95.2% | 
CCOC(=O)CNC(=O)c1cc2ccccc2c(=O)o1 [CBK058083] | 97.9% | 
O=C(NC1CCCC1)c1ccc(=O)[nH]c1 [CBK058093] | 104% | 
COc1ccc(-c2nc(NC3CCCCC3)c3ccccc3n2)cc1 [CBK058109] | 95.6% | 
CC1CCCCC1NC(=O)CSc1cccc2cccnc12 (stereo not drawn) [CBK058143] | 96.9% | 
CCCCCC(=O)Nc1c(C)cc(Br)cc1C [CBK058159] | 116% | 
COc1ccc(C(=O)NCC2(c3ccccc3)CCCC2)c(OC)c1 [CBK058164] | 113% | 
Clc1ccc(-c2csc(NCc3ccco3)n2)cc1 [CBK058168] | 109% | 
CC(C)=C(NC(=O)c1ccccc1)C(=O)Nc1cccc(C(=O)O)c1 [CBK058180] | 105% | 
O=C(CSCC(=O)Nc1ccc2ccccc2c1)NCC1CCCO1 (stereo not drawn) [CBK058183] | 89.6% | 
Cc1ccc(C(C)C)c(OCC(=O)n2nc(C)cc2C)c1 [CBK058196] | 87.9% | 
O=c1cc(C(F)(F)F)c2ccc(OCc3ccc(Cl)cc3)cc2o1 [CBK058200] | 93% | 
O=C(CSc1ncccn1)Nc1cccc(Cl)c1 [CBK058217] | 87.6% | 
Cc1ccccc1C(=O)Nc1ccc(F)c(F)c1 [CBK058249] | 96.1% | 
Cc1ccc(NC(=O)c2ccncc2)c(Br)c1 [CBK058282] | 94.1% | 
O=C(Nc1ccc2c(c1)OCO2)c1cccc(I)c1 [CBK058308] | 85.7% | 
CCN(CC)S(=O)(=O)c1cc(C(=O)NC2CCCCC2)ccc1Br [CBK058354] | 96.3% | 
COC(=O)c1ccccc1NC(=O)c1ccc(-n2cnnn2)cc1 [CBK058360] | 91.1% | 
CCCCCc1nnc(NC(=O)c2cccs2)s1 [CBK058382] | 103% | 
COc1ccc(/C=C/C(=O)O)cc1S(=O)(=O)N1CCCC1 [CBK058388] | 93.5% | 
Cc1cc(C)nc(NC(=O)c2c(Cl)cccc2Cl)n1 [CBK058401] | 99.9% | 

Structure (SMILES) | viability at 28.5 h, 10 µM | viability at 28.5 h, 10 µM (bulk resorufin, single well)
CCn1cc(Cl)c(C(=O)Nc2ccsc2C(=O)OC)n1 [CBK058439] | 90.9% | 
Cc1ccc(S(=O)(=O)N2CC=CCC2)cc1 [CBK058443] | 89% | 
CCOC(=O)CNC(=O)c1cc(Br)c(OC)c(OC)c1 [CBK058454] | 116% | 
CC1CCN(C(=O)c2cccc(Cn3cc(Br)cn3)c2)CC1 [CBK058482] | 91.8% | 
O=C(CSc1ncn[nH]1)Nc1ncccn1 [CBK058488] | 105% | 
COCCOc1nc2ccccc2nc1C [CBK058489] | 103% | 
O=C(Cc1ccc(Br)cc1)N1CCC(Cc2ccccc2)CC1 [CBK058493] | 96.7% | 
O=C(CCN1CCN(CCO)CC1)Nc1cccc(Br)c1 [CBK058502] | 102% | 
O=C(Nc1ccc(F)cc1)Nc1cccnc1Cl [CBK058509] | 90.4% | 
O=C(c1cc2ncc(Br)cn2n1)N1CCOCC1 [CBK058513] | 97.9% | 
Cc1ccccc1CSCC(=O)N1CCN(c2ccccc2)CC1 [CBK058577] | 89% | 
COc1ccc(C(=O)N2CCN(Cc3ccc(SC)cc3)CC2)cc1 [CBK058613] | 112% | 
CC(C)OC(=O)c1ccc(NC(=O)c2csc3c2CCCC3)cc1 [CBK058649] | 106% | 
O=C(COc1ccc(Cl)cc1Br)N1CCCCCC1 [CBK058661] | 82.8% | 
O=C(Nc1cccc(-c2nc3ncccc3o2)c1)c1cccnc1Cl [CBK058695] | 92% | 
CC(C)(C)c1csc(NC(=O)C2CCCCC2)n1 [CBK058720] | 98.1% | 
Cc1ccc(CSCC(=O)N2CCC(Cc3ccccc3)CC2)cc1 [CBK058739] | 95.6% | 
COc1ccc(CCNCc2cccc(Cl)c2)cc1 [CBK058787] |  | 90%
CC1CCCCN1C(=O)c1cccc(Cn2cc(Br)c([N+](=O)[O-])n2)c1 (stereo not drawn) [CBK058788] | 104% | 
CC(C)COC(=O)n1ccc(C(=O)N2CCCCC2)n1 [CBK058828] | 84.9% | 
COC(=O)c1csc2nc(NCCCO)sc12 [CBK058832] | 91.4% | 
COc1cc(C)nc(OCCNS(=O)(=O)c2cc(C)ccc2C)n1 [CBK058870] | 91.9% | 
